From patent US20240091200A1 (Lilac Therapeutics, Inc., priority 2019, published 2024)
Values joined by “and” are separate entries in the source; they are usually repeats but may differ in a detail not shown here. Equal values may be shown once.

target: Glycolate oxidase (GO) (Homo sapiens (Human), UniProt Q9UJM8); experiment: GO biochemical assay (Amplex Red, 384-well); settings: not given
Description: Amplex® Red Hydrogen Peroxide/Peroxidase Assay Kit (Catalog no. A22188) was purchased from Thermo Fisher (Waltham, MA).
The reaction was mixed and incubated at room temperature for 20 min followed by reading the plates by EnVision plate reader (Perkin Elmer, San Jose, CA) with excitation at 570 nm and emission 585 nm. […] The % inhibition as calculated as 100%×(Well-Negative)/(Positive-Negative)

Chain of Glycolate oxidase (GO) (Q9UJM8 whole entry): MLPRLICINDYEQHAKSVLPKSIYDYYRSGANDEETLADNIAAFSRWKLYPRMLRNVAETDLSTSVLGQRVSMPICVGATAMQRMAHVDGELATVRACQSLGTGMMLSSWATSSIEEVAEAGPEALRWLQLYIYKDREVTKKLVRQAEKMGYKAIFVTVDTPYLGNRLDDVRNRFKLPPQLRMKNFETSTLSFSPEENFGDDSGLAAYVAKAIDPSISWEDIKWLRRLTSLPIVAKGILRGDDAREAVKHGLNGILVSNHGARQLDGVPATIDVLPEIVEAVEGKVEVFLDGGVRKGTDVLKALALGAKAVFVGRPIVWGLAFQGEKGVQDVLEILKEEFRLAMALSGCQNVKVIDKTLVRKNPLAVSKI

SMILES	IC50 [nM]
CCOC(=O)c1[nH]nnc1-c1ccc(-c2ccc(Cl)cc2)cc1 [Example 1]	1000
CCOC(=O)c1[nH]nnc1-c1ccc(-c2ccc(C(N)=O)cc2)cc1 [Example 2, ethyl 4-(4carbamoyl-[1,1biphenyl]-4-yl)-1H-1,2,3-triazole-5-carboxylate]	1000
Cc1ccccc1-c1nn[nH]c1C(=O)O [Example 3, 4-(o-tolyl)-1H-1,2,3-triazole-5-carboxylic acid]	≥ 10000
Cc1ccc(-c2nn[nH]c2C(=O)O)cc1 [Example 5, 4-(p-tolyl)-1H-1,2,3-triazole-5-carboxylic acid]	≥ 10000
O=C(O)c1[nH]nnc1-c1cccc(F)c1 [Example 8, 4-(3-fluorophenyl)-1H-1,2,3-triazole-5-carboxylic acid]	1310
N#Cc1cccc(-c2nn[nH]c2C(=O)O)c1 [Example 12]	130
Cn1nnc(C(=O)O)c1-c1ccc(F)c(Cl)c1 [Example 17, 5-(3-chloro-4-fluorophenyl)-1-methyl-1H-1,2,3-triazole-4-carboxylic acid]	≥ 10000
O=C(O)c1[nH]nnc1-c1ccc(Cl)c(Cl)c1 [Example 19, 4-(3,4-dichlorophenyl)-1H-1,2,3-triazole-5-carboxylic acid]	196
O=C(O)c1[nH]nnc1-c1cccc(Cl)c1F [Example 22, 4-(3-chloro-2-fluorophenyl)-1H-1,2,3-triazole-5-carboxylic acid]	159
O=C(O)c1[nH]nnc1-c1ccc2c(c1)OC(F)(F)O2 [Example 29, 4-(2,2-difluorobenzo[d][1,3]dioxol-5-yl)-1H-1,2,3-triazole-5-carboxylic acid]	330
O=C(O)c1n[nH]cc1-c1cccnc1 [Example 35, 4-(pyridin-3-yl)-1H-pyrazole-3-carboxylic acid]	≥ 10000
COc1cc2ccc(-c3nn[nH]c3C(=O)O)cc2cn1 [Example 40, 4-(3-methoxyisoquinolin-7-yl)-1H-1,2,3-triazole-5-carboxylic acid]	1000
Cc1ccc(-c2ccc(-c3nn[nH]c3C(=O)O)cc2)cc1 [Example 53]	377
CC(C)(C)c1ccc(-c2ccc(-c3nn[nH]c3C(=O)O)cc2)cc1 [Example 54]	4300
O=C(O)c1[nH]nnc1-c1ccc(-c2ccc(OC(F)(F)F)cc2)cc1 [Example 55]	563
O=C(O)c1[nH]nnc1-c1ccc(-c2cccc(S(=O)(=O)N3CCOCC3)c2)cc1 [Example 75]	18.6
NS(=O)(=O)c1ccc(-c2ccc(-c3nn[nH]c3C(=O)O)cc2)cc1 [Example 77]	94.6
O=C(O)c1[nH]nnc1-c1ccc(-c2ccc(S(=O)(=O)N3CCCCC3)cc2)cc1 [Example 79]	244
O=C(O)c1[nH]nnc1-c1ccc(-c2ccc(N3CCCC3=O)cc2)cc1 [Example 83]	136
O=C(O)c1[nH]nnc1-c1ccc(-c2ccc(N3CCOCC3)cc2)cc1 [Example 84]	1000
O=C(O)c1[nH]nnc1-c1ccc2c(c1)oc1ccccc12 [Example 87, 4-(dibenzo[b,d]furan-3-yl)-1H-1,2,3-triazole-5-carboxylic acid]	23.8
O=C(O)c1[nH]nnc1-c1ccc2c(c1)[nH]c1ccccc12 [Example 88, 4-(9H-carbazol-2-yl)-1H-1,2,3-triazole-5-carboxylic acid]	77.6
Cc1cc(-c2ccc(-c3nn[nH]c3C(=O)O)cc2)ccc1Cl [Example 91]	64.5
O=C(O)c1[nH]nnc1-c1ccc(-c2cccc(-c3ccccc3)c2)cc1 [Example 99, 4-([1,131terphenyl]-4-yl)-1H-1,2,3-triazole-5-carboxylic acid]	408

SMILES	IC50 [nM]
O=C(O)c1[nH]nnc1-c1ccc(-c2ccc(-c3ccncc3)cc2)cc1 [Example 103]	93.2
Cc1cnc(-c2ccc(-c3ccc(-c4nn[nH]c4C(=O)O)cc3)cc2)s1 [Example 109]	22.7
O=C(O)c1[nH]nnc1-c1ccc(-c2ccc(-c3ncco3)cc2)cc1 [Example 112]	37.5
Cc1cc(-c2ccc(-c3ccc(-c4nn[nH]c4C(=O)O)cc3)cc2)nn1C [Example 117]	19.7
O=C(O)c1[nH]nnc1-c1ccc(-c2ccc(-c3nc4ccccc4s3)cc2)cc1 [Example 122]	10.7
O=C(O)c1[nH]nnc1-c1ccc(-c2ccc(-c3cn[nH]c3)cc2)cc1 [Example 124]	16.1
O=C(O)c1[nH]nnc1-c1ccc(-c2ccc(-c3cnn[nH]3)cc2)cc1 [Example 127]	4.14
O=C(O)c1[nH]nnc1-c1ccc(-c2ccc(-c3c[nH]cn3)cc2)cc1 [Example 129]	24
Cc1[nH]nnc1-c1ccc(-c2ccc(-c3nn[nH]c3C(=O)O)cc2)cc1 [Example 131]	4.67
O=C(O)c1[nH]nnc1-c1ccccn1 [Example 139, 4-(pyridin-2-yl)-1H-1,2,3-triazole-5-carboxylic acid]	≥ 10000
O=C(O)c1[nH]ncc1-c1ccccn1 [Example 140, 4-(pyridin-2-yl)-1H-pyrazole-5-carboxylic acid]	≥ 10000
O=C(O)c1[nH]nnc1-c1cscn1 [Example 141, 4-(thiazol-4-yl)-1H-1,2,3-triazole-5-carboxylic acid]	≥ 10000
CN(C)C(=O)c1cccc(-c2ccc(-c3nn[nH]c3C(=O)O)cc2)c1 [Example 143]	1000
O=C(O)c1[nH]nnc1-c1ccc(-c2ccc(Cl)c(S(=O)(=O)N3CCOCC3)c2)cc1 [Example 146]	33.6
Cn1nnc(-c2ccc(F)c(Cl)c2)c1C(=O)O [Example 150, 4-(3-chloro-4-fluorophenyl)-1-methyl-11H-1,2,3-triazole-5-carboxylic acid]	≥ 10000
CC1(C)c2cc(-c3ccc(-c4nn[nH]c4C(=O)O)cc3)ccc2C(=O)N1CC(F)(F)F [Example 153, 4-(4-(3,3-dimethyl-1-oxo-2-(2,2,2-trifluoroethyl)isoindolin-5-yl)phenyl)-1H-1,2,3-triazole-5-carboxylic acid]	119
O=C(O)c1[nH]nnc1C#Cc1ccc(Cl)cc1 [Example 160, 4-((4-chlorophenyl)ethynyl)-1H-1,2,3-triazole-5-carboxylic acid]	226
CC(=O)N1CC=C(c2ccc(-c3nn[nH]c3C(=O)O)cc2)CC1 [Example 162, 4-(4-(1-acetyl-1,2,3,6-tetrahydropyridin-4-yl)phenyl)-1H-1,2,3-triazole-5-carboxylic acid]	88.2
CC(=O)N1CCC(c2ccc(-c3nn[nH]c3C(=O)O)cc2)CC1 [Example 163, 4-(4-(1-acetylpiperidin-4-yl)phenyl)-1H-1,2,3-triazole-5-carboxylic acid]	1000
O=C(O)c1[nH]ncc1-c1ccc2c(c1)C(F)(F)c1cc(-c3c[nH]nn3)ccc1-2 [Example 170, 4-(9,9-difluoro-7-(1H-1,2,3-triazol-4-yl)-9H-fluoren-2-yl)-1H-pyrazole-5-carboxylic acid]	16.5
O=C(O)c1c[nH]nc1-c1ccc(F)c(Cl)c1 [Example 182, 3-(3-chloro-4-fluorophenyl)-1H-pyrazole-4-carboxylic acid]	> 10000
O=C(O)c1c[nH]nc1-c1cc(Cl)cc(Cl)c1 [Example 183, 3-(3,5-dichlorophenyl)-1H-pyrazole-4-carboxylic acid]	> 10000
O=C(O)c1[nH]cnc1-c1ccc(F)c(Cl)c1 [Example 184, 4-(3-chloro-4-fluorophenyl)-1H-imidazole-5-carboxylic acid]	> 10000
O=C(O)c1[nH]cnc1-c1cc(Cl)cc(Cl)c1 [Example 185, 4-(3,5-dichlorophenyl)-1H-imidazole-5-carboxylic acid]	> 10000

system: not listed separately; experiment: Plasma pharmacokinetics after an oral dose of Example 2 in SD rats; assay type: in vivo, Sprague Dawley rats; settings: Example 2 in plasma, PO Example 2 5 mg/kg, individual rats
Description: An oral dose of Example 2 was formulated in a sterile solution of 50% water, 37.5% PEG 300, and 12.5% DMSO at 1.0 mg/mL. The dosing group consisted of three fasted male Sprague Dawley rats. At dosing, the animals weighed between 0.26 and 0.27 kg. For the oral dosing group, the formulated dose was administered via oral gavage at 5.0 mL/kg for a dose of 5.0 mg/kg. Non-compartmental pharmacokinetic analysis was performed on the plasma concentration-time data.

SMILES	AUC0-24 h	AUCinf	Cmax	Tmax [min]
CCOC(=O)c1[nH]nnc1-c1ccc(-c2ccc(C(N)=O)cc2)cc1 [Example 2, ethyl 4-(4carbamoyl-[1,1biphenyl]-4-yl)-1H-1,2,3-triazole-5-carboxylate]	1.55 µM·h and 1.85 µM·h	1.57 µM·h and 1.9 µM·h	2530 nM and 2110 nM	30

same assay, conditions: Example 2 in plasma, PO Example 2 5 mg/kg, mean n=3

SMILES	AUCinf [µM·h]
CCOC(=O)c1[nH]nnc1-c1ccc(-c2ccc(C(N)=O)cc2)cc1 [Example 2, ethyl 4-(4carbamoyl-[1,1biphenyl]-4-yl)-1H-1,2,3-triazole-5-carboxylate]	1.6

same assay, conditions: male, Sprague Dawley, rat, plasma, po, 5 mg/kg, Example 2 in plasma, PO Example 2 5 mg/kg, individual rats

SMILES	AUC(0-inf) [µM·h]	Cmax [nM]
CCOC(=O)c1[nH]nnc1-c1ccc(-c2ccc(C(N)=O)cc2)cc1 [Example 2, ethyl 4-(4carbamoyl-[1,1biphenyl]-4-yl)-1H-1,2,3-triazole-5-carboxylate]	1.34	2540

same assay, conditions: male, Sprague Dawley, rat, plasma, po, 5 mg/kg, Example 2 in plasma, PO Example 2 5 mg/kg, individual rats, read-out: AUC0-24 h

SMILES	AUC(0-t) [µM·h]
CCOC(=O)c1[nH]nnc1-c1ccc(-c2ccc(C(N)=O)cc2)cc1 [Example 2, ethyl 4-(4carbamoyl-[1,1biphenyl]-4-yl)-1H-1,2,3-triazole-5-carboxylate]	1.27

same assay, conditions: male, Sprague Dawley, rat, plasma, po, 5 mg/kg, Example 2 in plasma, PO Example 2 5 mg/kg, individual rats, read-out: Tmax

SMILES	Tmax [min]
CCOC(=O)c1[nH]nnc1-c1ccc(-c2ccc(C(N)=O)cc2)cc1 [Example 2, ethyl 4-(4carbamoyl-[1,1biphenyl]-4-yl)-1H-1,2,3-triazole-5-carboxylate]	15

same assay, conditions: male, Sprague Dawley, rat, plasma, po, 5 mg/kg, Example 2 in plasma, PO Example 2 5 mg/kg, mean n=3

SMILES	AUC(0-inf) [µM·h]	Cmax [nM]
CCOC(=O)c1[nH]nnc1-c1ccc(-c2ccc(C(N)=O)cc2)cc1 [Example 2, ethyl 4-(4carbamoyl-[1,1biphenyl]-4-yl)-1H-1,2,3-triazole-5-carboxylate]	1.6 ± 0.28	2390 ± 246

same assay, conditions: male, Sprague Dawley, rat, plasma, po, 5 mg/kg, Example 2 in plasma, PO Example 2 5 mg/kg, mean n=3, read-out: AUC0-24 h

SMILES	AUC(0-t) [µM·h]
CCOC(=O)c1[nH]nnc1-c1ccc(-c2ccc(C(N)=O)cc2)cc1 [Example 2, ethyl 4-(4carbamoyl-[1,1biphenyl]-4-yl)-1H-1,2,3-triazole-5-carboxylate]	1.56

same assay, conditions: male, Sprague Dawley, rat, plasma, po, 5 mg/kg, Example 2 in plasma, PO Example 2 5 mg/kg, mean n=3, read-out: Tmax

SMILES	Tmax [min]
CCOC(=O)c1[nH]nnc1-c1ccc(-c2ccc(C(N)=O)cc2)cc1 [Example 2, ethyl 4-(4carbamoyl-[1,1biphenyl]-4-yl)-1H-1,2,3-triazole-5-carboxylate]	19.8
